According to patent publication US6521651B1, “Pharmaceutical composition” (Abbott Laboratories, priority 1996, dated 2003):

Assay: Oral bioavailability studies in dogs
Assay type: in vivo
Conditions: both sexes, beagle, dog, plasma; unformulated solid in a capsule dosage form, 5 mg/kg oral dose in dogs
Description: These capsules were administered to fasted dogs with 10 ml of water.
These capsules were administered to non-fasted dogs with ten milliliter of water.
These capsules were administered to fed dogs with ten milliliter of water.
Dogs (beagle dogs, mixed sexes, weighing 7-14 kg) were fasted overnight prior to dosing, but were permitted water ad libitum. Each dog received a 100 μg/kg subcutaneous dose of histamine approximately 30 minutes prior to dosing. Each dog received a single solid dosage form corresponding to a 5 mg/kg dose of the drug. The dose was followed by approximately 10 milliliters of water. Blood samples were obtained from each animal prior to dosing and 0.25, 0.5, 1.0, 1.5, 2, 3, 4, 6, 8, 10 and 12 hours after drug administration. […] Concentrations of parent drug were determined by reverse phase HPLC with low wavelength UV detection following liquid-liquid extraction of the plasma samples. The parent drug area under the curve was calculated by the trapezoidal method over the time course of the study. The absolute bioavailability of each test composition was calculated by comparing the area under the curve after oral dosing to that obtained from a single intravenous dose. Each capsule or capsule composition was evaluated in a group containing at least six dogs; the values reported are averages for each group of dogs.

- bioavailability: < 2%
Structure (SMILES): CC(C)c1nc(CN(C)C(=O)N[C@H](C(=O)N[C@@H](Cc2ccccc2)C[C@H](O)[C@H](Cc2ccccc2)NC(=O)OCc2cncs2)C(C)C)cs1 [compound III, (2S,3S,5S)-5-(N-(N-((N-Methyl-N-((2-isopropyl-4-thiazolyl)methyl)-amino)carbonyl)valinyl)amino)-2-(N-((5-thiazolyl)methoxycarbonyl)amino)-1,6-diphenyl-3-hydroxyhexane]
